Measurements taken from patent US12134601B2, “Compounds for inhibiting LY6K and methods of using same” (The Henry M. Jackson Foundation for the Advancement of …, priority 2017, dated 2024).

Key:
human Ly6K protein = target: T1, human Ly6K protein (Homo sapiens, UniProt Q17RY6); assay: Surface plasmon resonance binding to immobilized Ly6K (Biacore T100)
T1 construct: correspond to residues 18-138, which constitute the mature form of Ly6K; His tag (N); made in house; host or cells: E. coli BL21DE
T1 sequence (Q17RY6 18-138): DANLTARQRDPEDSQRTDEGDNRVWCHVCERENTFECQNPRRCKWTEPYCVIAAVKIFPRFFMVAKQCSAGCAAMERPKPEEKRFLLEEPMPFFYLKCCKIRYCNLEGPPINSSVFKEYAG
Procedure: (§1) FIG. 11: Small molecule binders of Ly6K. (A) Mature form of Ly6E, Ly6D and Ly6K were cloned in pET24a N-term His tag vector (Epoch Biosciences); expressed in BL21DE E. coli; purified recombinant protein was prepared using histidine column in using a batch purification method and eluted in 500 mM imidazole PBS, dialyzed in PBS. 5 μl of eluate was run on the 15% SDS-PAGE showing the purity with expected size protein of single band. (B) Structure of NSC243928. (G) Structure of NSC11150. (C-F; H-K) Representative surface plasmon resonance (SPR) sensorgrams show time on X-axis and SPR binding response on Y-axis. […] The corresponding data for NSC11150 are shown in corresponding lower panel.
We used surface plasmon resonance to identify small molecule binders of Ly6K. We screened a panel of 2000 small molecules, obtained from the Developmental Therapeutic Program (DTP, NCI). […] These five molecules were further tested for their ability to induce cell death, TGFβ1/Smad2/3 phosphorylation, IFNγ/Stat1 phosphorylation and PD-L1 protein expression. NSC243928 and NSC11150 were selected for further study on the basis of specificity and selectivity in bio-assays and structural flexibility, which allow future modifications required for in-depth studies (described in FIG. 11). The small molecule NSC243928 has been previously used in an in vivo anti-tumor screen by the NCI on a L1210 leukemia model in BDF1 syngeneic mice, a standard model used between 1955 and 1975. The average survival in this tumor model is 2-3 weeks. Treatment with NSC243928 increased survival benefit from 30% to 100% in a dose dependent manner. […] NSC11150 was not tested in in-vivo or in-vitro anti-tumor screens. […] As discussed infra, NSC243928 and NSC11150 inhibit TGFβ and PD-L1 pathways in a Ly6K dependent manner, indicating a mechanistic basic for the novel activities of these compounds (please see FIG. 11, 12). These experiments provide proof of the principle that small molecule targeting of Ly6K will have functional consequences and potentially lead to a better outcome in cancer treatment. […]

Ly6E = target: T2, Ly6E (Homo sapiens, UniProt Q16553); assay: Surface plasmon resonance binding to Ly6E
T2 construct: Mature form of Ly6E, Ly6D and Ly6K were cloned in pET24a N-term His tag vector; His tag (N); made in house; host or cells: E. coli BL21DE
T2 sequence (Q16553 21-101 limits assumed): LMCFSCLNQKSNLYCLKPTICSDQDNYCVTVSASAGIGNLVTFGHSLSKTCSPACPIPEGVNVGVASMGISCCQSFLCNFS
Procedure: as §1
(§2) We performed a surface plasmon resonance assay using the Biacore T100 by immobilizing the purified human Ly6K protein on the surface of a CM5 chip and screening the binding with a small molecule library containing 2000 compounds (Developmental Therapeutics Program, NCI). An initial screening of molecules was performed at 1 or 10 μM compound, based on solubility. We used a model that compares the actual binding maximum (RUactual) with the theoretical binding maximum (RUtheor). […] Hits (RUactual to RUtheor of 0.7-2.0) were then reviewed by a team of medicinal chemists and those with structural potential were selected for further study. […]

Ly6D = target: T3, Ly6D (Homo sapiens, UniProt Q14210); assay: Surface plasmon resonance binding to Ly6D
T3 construct: Mature form of Ly6E, Ly6D and Ly6K were cloned in pET24a N-term His tag vector; His tag (N); made in house; host or cells: E. coli BL21DE
T3 sequence (Q14210 21-98 limits assumed): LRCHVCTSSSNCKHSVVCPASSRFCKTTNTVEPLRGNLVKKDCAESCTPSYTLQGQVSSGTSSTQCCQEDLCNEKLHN
Procedure: as §1, §2

[1] = test system: MDA-MB-231 cells (control and Ly6K knockdown); assay: Cell titer assay of cell growth / cell death; assay type: cell-based, human; details: for Cell growth: 72 hours
Procedure: FIG. 12: Effect of small molecule binders of Ly6K. […] Cell titer assay was performed to measure cell growth. (B) Cells were serum starved and treated with 100 ng/ml IFNγ with 2 μM drugs. PD-L1 was measure in live cells (using a zombie live-dead stain) as described in FIG. 3A. The graph was plotted from three experiments. (C, D) Indicated cells were allowed to attach, serum starved overnight and then treated with TGFβ (C) or IFNγ (D) in the presence of 2 μM drug for 30 minutes and western blot analysis was performed. The *** represents p<0.0005 and NS=non-significant in a two-tailed student T-test.
(§3) NSC243928 inhibited the TGFβ1 induced phosphorylation of Smad2/3; NSC11150 had no effect on TGFβ1/Smad2/3 signaling (FIG. 12C). NSC11150 inhibited IFNγ induced phosphorylation of Stat1; NSC243928 had no effect on IFNγ/Stat1 signaling (FIG. 12D).

PD-L1 = assay: IFNγ-induced PD-L1 protein expression in live cells (flow cytometry); assay type: cell-based, human; details: control cells, 100 ng/ml IFNγ, 2 μM drug
Procedure: FIG. 3: Ly6K is required for IFNγ/PD-L1 pathway. (A) Indicated cells were serum starved prior to treatment with IFNγ 100 ng/ml overnight. Cells were labeled with anti-PD-L1 BV540 antibody or isotype control antibody prior to fixation to assess the cell surface expression of PD-L1 protein. Percentage of high PD-L1 cells were plotted in a bar graph from three different experiments and subjected to a two tailed student T-test, wherein p<0.05 is considered significant. (B) Western blotting analysis for indicated proteins. (C) Hypothesized effect of Ly6K on IFNγ/Stat1 pathway leading to increased PD-L1.
FIG. 12: Effect of small molecule binders of Ly6K. (A) Indicated cells were seeded and allowed to attach overnight, then treated with 2 μM drugs for 72 hours. Cell titer assay was performed to measure cell growth. (B) Cells were serum starved and treated with 100 ng/ml IFNγ with 2 μM drugs. PD-L1 was measure in live cells (using a zombie live-dead stain) as described in FIG. 3A. The graph was plotted from three experiments. (C, D) Indicated cells were allowed to attach, serum starved overnight and then treated with TGFβ (C) or IFNγ (D) in the presence of 2 μM drug for 30 minutes and western blot analysis was performed. The *** represents p<0.0005 and NS=non-significant in a two-tailed student T-test. […]

TGFβ1/Smad2/3 signaling = assay: TGFβ1-induced Smad2/3 phosphorylation (western blot); assay type: cell-based, human; details: 2 μM drug, 30 minutes
Procedure: (§4) FIG. 12: Effect of small molecule binders of Ly6K. (A) Indicated cells were seeded and allowed to attach overnight, then treated with 2 μM drugs for 72 hours. Cell titer assay was performed to measure cell growth. (B) Cells were serum starved and treated with 100 ng/ml IFNγ with 2 μM drugs. PD-L1 was measure in live cells (using a zombie live-dead stain) as described in FIG. 3A. The graph was plotted from three experiments. (C, D) Indicated cells were allowed to attach, serum starved overnight and then treated with TGFβ (C) or IFNγ (D) in the presence of 2 μM drug for 30 minutes and western blot analysis was performed. The *** represents p<0.0005 and NS=non-significant in a two-tailed student T-test.
as §3

IFNγ/Stat1 signaling = assay: IFNγ-induced Stat1 phosphorylation (western blot); assay type: cell-based, human; details: 2 μM drug, 30 minutes
Procedure: as §4, §3

4T1 mammary tumor = 4T1 mammary tumor growth in syngeneic mouse model; assay type: in vivo, mice (Balb/c); details: 5 mg/kg/i.p. after tumor establishment at 50-70 mm^3
Excerpt: FIG. 4: Ly6K is required for tumor growth in syngeneic mammary tumor models. (A) The qRT-PCR analysis using […] gene expression assay for mRNA levels in scrambled shRNA (Con) and Ly6K knockdown (Ly6K sh) cells. (B) The western blot analysis (cell signaling antibodies). (C) For 4T1 model, 20K cells/site in Balb/c mice and for E0771, 500K cells/site in C57BL/6 syngeneic mice were transplanted into lower mammary fat pad by subcutaneous injection (number of mice 10 per cell line pair). Tumor measurements were performed using a Vernier caliper. The tumor volumes were calculated using equation 1⁄2*length*(width*width). ** indicates p<0.001 and NS=non-significant (p>0.05) in a two tailed student T-test. FIG. 5: Effect of small molecules on in vivo tumor growth. (A) NCI data-Indicated doses of NSC243928 in saline were given by intraperitoneal route (i.p.) every day for 9 days to BIDF syngeneic mice carrying […] leukemia cells. Each group has 6 mice. Mouse were monitored for 30 days after drug treatment. […] The ** represents p<0.005 in a two tailed student T-test. Each group has 10 mice. We used surface plasmon resonance to identify small molecule binders of Ly6K. We screened a panel of 2000 small molecules, obtained from the Developmental Therapeutic Program (DTP, NCI). […]

[2] = Preliminary experiments for maximum tolerated dose; assay type: in vivo; details: 5 mg/kg/ip
L1210 leukemia = details: up to 10 mg/kg/i.p.; cited from earlier work

SMILES: Oc1ccc(Cc2ccc(Cl)cc2)c(O)c1 [NSC11150, 4-(4-chlorobenzyl)benzene-1,3-diol]
- SPR binding response to Ly6K (human Ly6K protein): binding response in dose dependent manner
- Kd (human Ly6K protein; SPR): 1.6 µM
- SPR binding response to Ly6E (Ly6E): don't show binding response
- SPR binding response to Ly6D (Ly6D): don't show binding response
- Effect on cell death ([1]; 2 μM): did not show significant effect
- Cell death ([1]; 100 μM, both control and Ly6K knockdown cells): induced cell death
- PD-L1 protein expression (PD-L1): inhibition of PD-L1 expression
- TGFβ1 induced phosphorylation of Smad2/3 (TGFβ1/Smad2/3 signaling): had no effect
- IFNγ induced phosphorylation of Stat1 (IFNγ/Stat1 signaling): inhibited
- 4T1 mammary tumor growth (4T1 mammary tumor): suppress 4T1 mammary tumor growth
- Therapeutic benefit [2]: therapeutic benefit

SMILES: CCS(=O)(=O)Nc1ccc(Nc2c3ccccc3nc3ccccc23)c(OC)c1.CS(=O)(=O)O [NSC243928, 4′-(9-Acridinylamino)-3′-methoxyethanesulfonanilide methanesulfonate]
- SPR binding response to Ly6K (human Ly6K protein): binding response in dose dependent manner
- SPR binding response to Ly6E (Ly6E): don't show binding response
- SPR binding response to Ly6D (Ly6D): don't show binding response
- Cell growth ([1]; Ly6K knockdown MDA-MB-231 cells, 2 μM): lost its activity
- Cell growth ([1]; control MDA-MB-231 cells, 2 μM): diminished the growth
- PD-L1 protein expression (PD-L1): did not show significant effect
- TGFβ1 induced phosphorylation of Smad2/3 (TGFβ1/Smad2/3 signaling): inhibited
- IFNγ induced phosphorylation of Stat1 (IFNγ/Stat1 signaling): had no effect
- 4T1 mammary tumor growth (4T1 mammary tumor): suppress 4T1 mammary tumor growth
- Therapeutic benefit [2]: therapeutic benefit
- Visible toxicity [2]: no visible toxicity
- Toxicity (L1210 leukemia): not found to be toxic
